Measurements: patent US8546343B2, “Aminoglycoside antibiotics targeting bacterial 16S ribosomal RNA” (Eidgenoessische Technische Hochschule Zurich, priority 2007, dated 2013)
≈ marks a conversion by molar mass, not a printed value.

What was measured:
[1] = system: AG015 S. aureus BM3002 (ANT4′); experiment: Standard MIC assay, AG015; assay type: cell-based, Staphylococcus aureus
Description: (§1) Selected compounds of the present invention were tested for antibiotic susceptibility using clinical isolates of Staphylococci, Enterococci and Escherichia coli as well as strains carrying defined resistance determinants and compared to well known antibiotics of the state of the art. Drug susceptibility was determined in standard MIC assays, i.e. by determination of the minimal drug concentration required to inhibit bacterial growth in vitro.

[2] = system: AG016 S. aureus BM3002; experiment: Standard MIC assay, AG016; assay type: cell-based, Staphylococcus aureus
Description: as §1

[3] = system: AG017 E. faecalis JH2-2; experiment: Standard MIC assay, AG017; assay type: cell-based, Enterococcus faecalis
Description: as §1

[4] = system: AG013 Staph. epi. clinical isolate; experiment: Standard MIC assay, AG013; assay type: cell-based, Staphylococcus epidermidis
Description: as §1

[5] = system: AG014 Staph. epi. clinical isolate; experiment: Standard MIC assay, AG014; assay type: cell-based, Staphylococcus epidermidis
Description: as §1

[6] = system: AG019 E. faecalis JH2-2 (APH2″ AAC6′); experiment: Standard MIC assay, AG019; assay type: cell-based, Enterococcus faecalis
Description: as §1

[7] = system: AG011 Staph. aureus clinical isolate; experiment: Standard MIC assay, AG011; assay type: cell-based, Staphylococcus aureus
Description: as §1

[8] = system: M. smegmatis ΔrrnB (bacterial ribosomes); experiment: MIC, recombinant M. smegmatis with bacterial (wild-type) ribosomes; assay type: cell-based, Mycobacterium smegmatis; details: 72 h at 37° C.
Source text: (§2) The strain used for introduction/selection of mutational alterations was a genetically modified derivative of Mycobacterium smegmatis carrying a single functional chromosomal rRNA operon (Sander et al. Mol. Microbiol. 1996, 22: 841-848). This strain, termed M. smegmatis rrn^−, allowed for the selection of mutational rRNA gene alterations using a plasmid carrying the rRNA gene with the respective mutational alteration.)
(§3) The rRNA gene carried on the plasmid encodes either the complete rRNA operon (Prammananan et al. Antimicrob. Agents Chemother. 1999, 43: 447-453) or a non-functional rRNA gene fragment of approximately 1.0 kb (Pfister et al. Antimicrob. Agents Chemother. 2003, 47: 1496-1502). PCR-mutagenesis in vitro was used to generate the mutagenized rRNA gene fragment. In the case of a partial rRNA gene fragment the mutagenized rRNA gene fragment was cloned into vectors pMV261 or pMV361 (Sander et al. Mol. Microbiol. 2002, 46: 1295-1304; Pfister et al. Antimicrob. Agents Chemother. 2003, 47: 1496-1502) to result in vectors carrying a partial rRNA gene fragment of approximately 1.0 kb with the mutational alteration introduced. In the case of plasmids carrying the complete rRNA operon the mutagenized rRNA gene fragment obtained by PCR was cloned into vectors pMV361 rRNA or pMV261 rRNA using appropriate restriction sites (Prammananan et al. Antimicrob. Agents Chemother. 1999, 43: 447-453). Vectors pMV361 rRNA and pMV261 rRNA carried a complete copy of the rRNA operon from M. smegmatis (Sander et al. Mol. Microbiol. 1997, 26: 469-480). Introduction of mutations into the plasmid encoded rRNA was confirmed by sequencing.
(§4) The single rRNA allelic derivative of M. smegmatis, i.e. M. smegmatis rrn, was used for transformation of the plasmids. The strain was made electro-competent and transformed according to standard techniques and as described previously (Sander et al. Mol. Microbiol. 1997, 26: 469-484). Following primary selection, the plasmid-encoded mutational rRNA gene alteration was transferred into the single chromosomal rRNA operon by means of RecA-mediated homologous recombination (Prammananan at al. Antimicrob. Agents Chemother. 1999, 43: 447-453). Introduction of the mutational rRNA gene alteration into the single functional chromosomal rRNA operon by gene conversion was confirmed by sequence determination.
(§5) Ribosomal drug susceptibility was studied by determining the minimal inhibitory concentrations, as described in detail in Pfister et al. 2003 and 2005 (see above).
(§6) The recombinants carrying the respective mutational alterations in the functional rRNA operon were colony-purified and subjected to determinations of minimal inhibitory concentrations (MIC) to determine ribosomal drug susceptibility. Cultures from single colonies were grown in LB medium supplemented with 0.05% Tween 80 and used for MIC tests in a microtiter plate format. Starting cultures contained 200 μl of bacterial cells at an optical density of 0.025 at 600 nm, and the respective drug was added in twofold series of dilution.
(§7) Key nucleotides which distinguish the prokaryotic from the eukaryotic decoding site are 16S rRNA positions 1408 (bacterial ribosome: A, eukaryotic cytosolic ribosomes: G) and 1491 (bacterial ribosomes: G, eukaryotic cytosolic ribosomes: A, eukaryotic mitochondrial ribosome: C).

[9] = system: M. smegmatis ΔrrnB 1408G (16S rRNA position 1408 G, eukaryotic cytosolic ribosomes); experiment: MIC, recombinant M. smegmatis with mutant ribosomes 1408G; assay type: cell-based, Mycobacterium smegmatis; details: M. smegmatis ΔrrnB 1408G mutant ribosomes; 72 h at 37° C.
Source text: as §2, §3, §4, §5, §6, §7

[10] = system: M. smegmatis ΔrrnB 1491C (16S rRNA position 1491 C, eukaryotic mitochondrial ribosome); experiment: MIC, recombinant M. smegmatis with mutant ribosomes 1491C; assay type: cell-based, Mycobacterium smegmatis; details: M. smegmatis ΔrrnB 1491C mutant ribosomes; 72 h at 37° C.
Source text: as §2, §3, §4, §5, §6, §7

[11] = system: M. smegmatis ΔrrnB 1491A (16S rRNA position 1491 A, eukaryotic cytosolic ribosomes); experiment: MIC, recombinant M. smegmatis with mutant ribosomes 1491A; assay type: cell-based, Mycobacterium smegmatis; details: M. smegmatis ΔrrnB 1491A mutant ribosomes; 72 h at 37° C.
Source text: as §2, §3, §4, §5, §6, §7

Compound	minimal inhibitory concentrations ΔrrnB [8] [µg/mL]	minimal inhibitory concentrations ΔrrnB 1408G [9] [µg/mL]	minimal inhibitory concentrations ΔrrnB 1491C [10]	minimal inhibitory concentrations ΔrrnB 1491A [11] [µg/mL]	also measured
Neomycin [reference compound]					Minimal inhibitory concentrations AG015 ([1]; S. aureus BM3002 (ANT4′)): 128 µg/mL; Minimal inhibitory concentrations AG016 [2]: 1 to 2 µg/mL; Minimal inhibitory concentrations AG017 [3]: 64 µg/mL; Minimal inhibitory concentrations AG013 [4]: 64 to 128 µg/mL; Minimal inhibitory concentrations AG014 [5]: 32 µg/mL; Minimal inhibitory concentrations AG019 ([6]; E. faecalis JH2-2 (APH2″ AAC6′)): >256 µg/mL; Minimal inhibitory concentrations AG011 [7]: 4 µg/mL
NC[C@@H]1O[C@H](O[C@H]2[C@@H](O)[C@H](O[C@@H]3[C@@H](O)[C@H](N)C[C@H](N)[C@H]3O[C@H]3O[C@H](CO)[C@@H](O)[C@H](O)[C@H]3N)O[C@@H]2CO)[C@H](N)[C@@H](O)[C@@H]1O [Paromomycin, paromomycin, reference compound]	1	64	≧512 μg/ml	64	MIC ([1]; Staphylococcus aureus, read-out: Minimal inhibitory concentrations AG015): > 256 µg/mL; MIC ([2]; Staphylococcus aureus, read-out: Minimal inhibitory concentrations AG016): 2 to 4 µg/mL (≈ 3.25 to 6.5 µM); MIC ([3]; Enterococcus faecalis, read-out: Minimal inhibitory concentrations AG017): 128 to 256 µg/mL (≈ 208 to 416 µM); MIC ([4]; Staphylococcus epidermidis, read-out: Minimal inhibitory concentrations AG013): ≥ 256 µg/mL; MIC ([5]; Staphylococcus epidermidis, read-out: Minimal inhibitory concentrations AG014): ≥ 256 µg/mL; MIC ([6]; Enterococcus faecalis, read-out: Minimal inhibitory concentrations AG019): > 256 µg/mL; MIC ([7]; Staphylococcus aureus, read-out: Minimal inhibitory concentrations AG011): 8 µg/mL (≈ 13 µM)
CC1OC[C@H]2O[C@H](O[C@H]3[C@H](O[C@@H]4O[C@H](CO)[C@@H](O[C@H]5O[C@@H](CN)[C@@H](O)[C@H](O)[C@H]5N)[C@H]4O)[C@@H](O)[C@H](N)C[C@@H]3N)[C@H](N)[C@@H](O)[C@@H]2O1 (some centres unmarked) [Compound 5.23, 4′,6′-O-Ethylideneparomomycin]	32	>512	>512 µg/mL	>512	
NC[C@@H]1O[C@H](O[C@H]2[C@@H](O)[C@H](O[C@@H]3[C@@H](O)[C@H](N)C[C@H](N)[C@H]3O[C@H]3O[C@H](CO)[C@@H](OCOCc4ccccc4)[C@H](O)[C@H]3N)O[C@@H]2CO)[C@H](N)[C@@H](O)[C@@H]1O [Compound 19d, 4′-Benzyloxymethylparomomycin]	16	>512	>512 µg/mL	>512	
NC[C@@H]1O[C@H](O[C@H]2[C@@H](O)[C@H](O[C@@H]3[C@@H](O)[C@H](N)C[C@H](N)[C@H]3O[C@H]3O[C@@H]4CO[C@@H](c5ccc(-c6ccccc6)cc5)O[C@H]4[C@H](O)[C@H]3N)O[C@@H]2CO)[C@H](N)[C@@H](O)[C@@H]1O [Compound 5.11, 4′,6′-O-p-Phenylbenzylideneparomomycin]	64	128	64 µg/mL	64 to 128	
NC[C@@H]1O[C@H](O[C@H]2[C@@H](O)[C@H](O[C@@H]3[C@@H](O)[C@H](N)C[C@H](N)[C@H]3O[C@H]3O[C@@H]4COC(c5ccco5)O[C@H]4[C@H](O)[C@H]3N)O[C@@H]2CO)[C@H](N)[C@@H](O)[C@@H]1O (some centres unmarked) [Compound 5.21, 4′,6′-O-2-Furanylideneparomomycin]	8 to 16	>512	>512 µg/mL	>512	
CN(C)c1ccc([C@@H]2OC[C@H]3O[C@H](O[C@H]4[C@H](O[C@@H]5O[C@H](CO)[C@@H](O[C@H]6O[C@@H](CN)[C@@H](O)[C@H](O)[C@H]6N)[C@H]5O)[C@@H](O)[C@H](N)C[C@@H]4N)[C@H](N)[C@@H](O)[C@@H]3O2)cc1 [Compound 5.18, 4′,6′-O-p-Dimethylaminobenzylideneparomomycin]	2 to 4	256 to 512	>512 µg/mL	256	
